Measurements published in ChEMBL document CHEMBL4371079, “Improved synthesis, resolution, absolute configuration determination and biological evaluation of HLM006474 enantiomers” (Bioorg Med Chem Lett, 2019).
Activity calls are given as the source filed them. No cut-off for these calls is given here.

Target: Transcription factor E2F1 (Homo sapiens) (UniProt Q01094)
Test: Inhibition of E2F1 transcriptional activity (unknown origin) expressed in HEK293 cells at 10 uM measured after 48 hrs by luciferase reporter gene assay
Type: cell-based

Chain of Transcription factor E2F1 (Homo sapiens) (Q01094 whole entry): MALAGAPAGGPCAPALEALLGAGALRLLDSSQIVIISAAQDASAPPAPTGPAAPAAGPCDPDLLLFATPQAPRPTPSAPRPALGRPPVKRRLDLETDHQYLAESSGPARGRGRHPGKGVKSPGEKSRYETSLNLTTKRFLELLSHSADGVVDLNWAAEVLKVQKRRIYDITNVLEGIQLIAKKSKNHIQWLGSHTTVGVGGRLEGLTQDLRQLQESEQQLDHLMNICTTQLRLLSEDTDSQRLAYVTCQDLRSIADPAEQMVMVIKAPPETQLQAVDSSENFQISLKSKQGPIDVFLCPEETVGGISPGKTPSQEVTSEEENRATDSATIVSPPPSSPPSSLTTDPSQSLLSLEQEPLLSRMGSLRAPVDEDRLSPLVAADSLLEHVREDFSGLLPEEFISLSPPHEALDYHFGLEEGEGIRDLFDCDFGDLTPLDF

inhibition | SMILES
Active | CCOc1ccc(C(Nc2ccccn2)c2ccc3ccc(C)nc3c2O)cc1C (racemic)
inactive | CCOc1ccc([C@H](Nc2ccccn2)c2ccc3ccc(C)nc3c2O)cc1C
Active | CCOc1ccc([C@@H](Nc2ccccn2)c2ccc3ccc(C)nc3c2O)cc1C
